Data taken from US20260062422A1 (Halda Therapeutics OpCo, Inc., priority 2022, published 2026).

Assays:
[1] = test system: T-Rex 293 cell line SC3 cells having increased expression of androgen receptor protein due to exposure to doxycycline; assay: Cellular growth inhibition, T-Rex 293 SC3 cells with doxycycline (androgen receptor induced), CellTiter-Glo; format: cell-based; conditions: T-Rex 293 SC3 cells with 10 ng/mL doxycycline (increased androgen receptor expression)
Outline: (§1)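 GI50 came from a four-parameter fit of CellTiter-Glo 2.0 luminescence after 72 h compound exposure (0.5% DMSO, 37 °C), dosing 24 h post-seeding. SC3 clone cells (2500/well), transfected with wild-type androgen receptor, grew in charcoal-stripped serum medium lacking phenol red, induced with 10 ng/mL doxycycline or left uninduced.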

[2] = test system: T-Rex 293 cell line SC3 cells lacking increased expression of androgen receptor protein; assay: Cellular growth inhibition, T-Rex 293 SC3 cells without doxycycline, CellTiter-Glo; format: cell-based; conditions: T-Rex 293 SC3 cells not exposed to doxycycline, CellTiter-Glo 2.0
Outline: as §1

T47D cells = assay: Cellular growth inhibition assay for T47D cells, CellTiter-Glo; format: cell-based, human; conditions: 72 hours treatment, CellTiter-Glo 2.0 cell viability
Outline: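 Luminescence from CellTiter-Glo 2.0 after 72 h of compound exposure gives the viability signal. Cells grew in insulin-supplemented (0.2 units/mL) DMEM with 10% FBS and were treated one day after seeding at 0.5% DMSO. GI50 values come from four-parameter nonlinear regression.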

VCaP cells = assay: Cellular growth inhibition assay for VCaP cells, CellTiter-Glo; format: cell-based, human; conditions: 72 hours treatment, CellTiter-Glo 2.0
Outline: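 GI50 values come from four-parameter curve fits of luminescence data normalized to a zero baseline. Compound, in medium with 0.5% DMSO, was added one day after plating and left for 72 h before CellTiter-Glo 2.0 addition.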

GI50 (T47D cells; Homo sapiens, T47D, 72 h) [nM] | GI50 (VCaP cells; Homo sapiens, VCaP, 72 h) [nM] | GI50 (T47D cells) [nM] | GI50 (VCaP cells) [nM] | Structure (SMILES) | GI50 ([1]; 72 h) [nM] | GI50 ([2]; 72 h) [nM] | GI50 ([1]; 72 hours) [nM] | GI50 ([2]; 72 hours) [nM]
< 500 | < 500 | – | – | Cc1sc2c(c1C)C(c1ccc(C3CC(N4CCN(c5ncc(C(=O)N[C@H]6C(C)(C)[C@H](Oc7ccc(C#N)c(Cl)c7)C6(C)C)cn5)CC4)C3)cc1)=N[C@@H](C)c1nnc(C)n1-2 (stereo partly drawn) [Compound I-571] | < 500 | 500 to 1500 | – | –
– | – | < 500 | < 500 | Cc1sc2c(c1C)C(c1ccc(C[C@H]3C[C@@H](OC4CCN(c5ncc(C(=O)N[C@H]6C(C)(C)[C@H](Oc7ccc(C#N)c(Cl)c7)C6(C)C)cn5)CC4)C3)cc1)=N[C@@H](Cc1ncco1)c1nnc(C)n1-2 [Compound I-427] | – | – | < 500 | > 3000
< 500 | < 500 | – | – | Cc1sc2c(c1C)C(c1ccc(CCCC3CC4(C3)CN(c3ncc(C(=O)N[C@H]5C(C)(C)[C@H](Oc6ccc(C#N)c(Cl)c6)C5(C)C)cn3)C4)cc1)=N[C@@H](C)c1nnc(C)n1-2 [Compound I-365] | < 500 | > 3000 | – | –
< 500 | < 500 | – | – | Cc1sc2c(c1C)C(c1ccc(CCCOC3CCN(c4ncc(C(=O)N[C@H]5C(C)(C)[C@H](Oc6ccc(C#N)c(Cl)c6)C5(C)C)cn4)CC3)cc1)=N[C@@H](Cc1cccnc1)c1nnc(C)n1-2 [Compound I-214] | < 500 | < 500 | – | –
500 to 1500 | < 500 | – | – | Cc1sc2c(c1C)C(c1ccc(OCCC3CCN(c4ncc(C(=O)N[C@H]5C(C)(C)[C@H](Oc6ccc(C#N)c(Cl)c6)C5(C)C)cn4)CC3)cc1)=NC(Cc1ncco1)c1nnc(C)n1-2 (stereo partly drawn) [Compound I-167] | < 500 | 500 to 1500 | – | –
< 500 | < 500 | – | – | CCNC(=O)C[C@@H]1N=C(c2ccc(OC3CC(OC4CCN(c5ncc(C(=O)N[C@H]6C(C)(C)[C@H](Oc7ccc(C#N)c(Cl)c7)C6(C)C)cn5)CC4)C3)cc2)c2c(sc(C)c2C)-n2c(C)nnc21 (stereo partly drawn) [Compound I-72] | < 500 | 500 to 1500 | – | –
500 to 1500 | < 500 | – | – | CCNC(=O)C[C@@H]1N=C(c2ccc(OCCC3CCN(c4ncc(C(=O)N[C@H]5C(C)(C)[C@H](Oc6ccc(C#N)c(Cl)c6)C5(C)C)cn4)CC3)cc2)c2c(sc(C)c2C)-n2c(C)nnc21 [Compound I-69] | < 500 | < 500 | – | –
< 500 | < 500 | – | – | Cc1sc2c(c1C)C(c1ccc(CCN3CC[C@@]4(C3)CN(c3ncc(C(=O)N[C@H]5C(C)(C)[C@H](Oc6ccc(C#N)c(Cl)c6)C5(C)C)cn3)CCO4)cc1)=N[C@@H](Cc1ncco1)c1nnc(C)n1-2 [Compound I-243] | < 500 | < 500 | – | –
> 3000 | 500 to 1500 | – | – | Cc1sc2c(c1C)C(c1ccc(C(=O)N3CCCC(C(=O)c4ncc(C(=O)N[C@H]5C(C)(C)[C@H](Oc6ccc(C#N)c(Cl)c6)C5(C)C)cn4)C3)cc1)=N[C@H](Cc1ncco1)c1nnc(C)n1-2 (stereo partly drawn) [Compound I-346] | < 500 | > 3000 | – | –
< 500 | < 500 | – | – | Cc1sc2c(c1C)C(c1ccc(CC3CCC4(C3)CN(c3ncc(C(=O)N[C@H]5C(C)(C)[C@H](Oc6ccc(C#N)c(Cl)c6)C5(C)C)cn3)CCO4)cc1)=N[C@@H](C)c1nnc(C)n1-2 (stereo partly drawn) [Compound I-619] | < 500 | 500 to 1500 | – | –
< 500 | < 500 | – | – | Cc1sc2c(c1C)C(c1ccc(C[C@H]3C[C@]4(CCCN(c5ncc(C(=O)N[C@H]6C(C)(C)[C@H](Oc7ccc(C#N)c(Cl)c7)C6(C)C)cn5)C4)C3)cc1)=N[C@@H](C)c1nnc(C)n1-2 [Compound I-394] | < 500 | > 3000 | – | –
500 to 1500 | < 500 | – | – | Cc1sc2c(c1C)C(c1ccc(O[C@@H]3CC[C@]4(CCCN(c5ncc(C(=O)N[C@H]6C(C)(C)[C@H](Oc7ccc(C#N)c(Cl)c7)C6(C)C)cn5)C4)C3)cc1)=N[C@@H](Cc1ncco1)c1nnc(C)n1-2 [Compound I-202] | < 500 | > 3000 | – | –
< 500 | < 500 | – | – | Cc1sc2c(c1C)C(c1ccc(N3C[C@@H]4[C@H](C3)[C@H]4Nc3ncc(C(=O)N[C@H]4C(C)(C)[C@H](Oc5ccc(C#N)c(Cl)c5)C4(C)C)cn3)cc1)=N[C@@H](Cc1ncco1)c1nnc(C)n1-2 [Compound I-657] | < 500 | < 500 | – | –
500 to 1500 | 1500 to 3000 | – | – | Cc1sc2c(c1C)C(c1ccc(N[C@H]3CCCCN(c4ncc(C(=O)N[C@H]5C(C)(C)[C@H](Oc6ccc(C#N)c(Cl)c6)C5(C)C)cn4)C3)cc1)=NC(Cc1ncco1)c1nnc(C)n1-2 (stereo partly drawn) [Compound I-655] | < 500 | > 3000 | – | –
– | – | 1500 to 3000 | > 3000 | Cc1sc2c(c1C)C(c1ccc(N3CCC4(CC3)CC(Cc3ncc(C(=O)N[C@H]5C(C)(C)[C@H](Oc6ccc(C#N)c(Cl)c6)C5(C)C)cn3)C4)cc1)=NC(Cc1ncco1)c1nnc(C)n1-2 (stereo partly drawn) [Compound I-459] | < 500 | – | – | > 3000
< 500 | < 500 | – | – | Cc1sc2c(c1C)C(c1ccc(N3CC(CC4CN(c5ccc(C(=O)N[C@H]6C(C)(C)[C@H](Oc7ccc(C#N)c(Cl)c7)C6(C)C)nc5)C4)C3)cc1)=N[C@@H](Cc1ncco1)c1nnc(C)n1-2 [Compound I-621] | < 500 | < 500 | – | –
< 500 | < 500 | – | – | Cc1sc2c(c1C)C(c1ccc(O[C@@H]3CO[C@]4(CCCN(c5ncc(C(=O)N[C@H]6C(C)(C)[C@H](Oc7ccc(C#N)c(Cl)c7)C6(C)C)cn5)C4)C3)cc1)=N[C@@H](Cc1ncco1)c1nnc(C)n1-2 [Compound I-187] | < 500 | < 500 | – | –
> 3000 | < 500 | – | – | Cc1sc2c(c1C)C(c1ccc(-c3cc(C4CCN(c5ncc(C(=O)N[C@H]6C(C)(C)[C@H](Oc7ccc(C#N)c(Cl)c7)C6(C)C)cn5)CC4)cs3)cc1)=N[C@@H](Cc1ncco1)c1nnc(C)n1-2 [Compound I-480] | < 500 | > 3000 | – | –
> 3000 | < 500 | – | – | Cc1sc2c(c1C)C(c1ccc(C#CCC3CCN(c4ncc(C(=O)N[C@H]5C(C)(C)[C@H](Oc6ccc(C#N)c(Cl)c6)C5(C)C)cn4)CC3)cc1)=N[C@H](Cc1ncco1)c1nnc(C)n1-2 [Compound I-58] | < 500 | > 3000 | – | –
< 500 | > 3000 | – | – | Cc1sc2c(c1C)C(c1ccc(OC3CC4(C3)C[C@H](C)N(c3ncc(C(=O)N[C@H]5C(C)(C)[C@H](Oc6ccc(C#N)c(Cl)c6)C5(C)C)cn3)[C@@H](C)C4)cc1)=N[C@@H](Cc1ncco1)c1nnc(C)n1-2 (stereo partly drawn) [Compound I-282] | < 500 | > 3000 | – | –
> 3000 | < 500 | – | – | Cc1sc2c(c1C)C(c1ccc([C@@H]3CCCCN3C(=O)[C@H]3CCCN(c4ncc(C(=O)N[C@H]5C(C)(C)[C@@H](Oc6ccc(C#N)c(Cl)c6)C5(C)C)cn4)C3)cc1)=N[C@@H](Cc1ncco1)c1nnc(C)n1-2 [Compound I-360] | < 500 | > 3000 | – | –
< 500 | > 3000 | – | – | Cc1sc2c(c1C)C(c1ccc(-c3ccc(OC4CCN(c5ncc(C(=O)N[C@H]6C(C)(C)[C@H](Oc7ccc(C#N)c(Cl)c7)C6(C)C)cn5)CC4)s3)cc1)=N[C@@H](Cc1ncco1)c1nnc(C)n1-2 [Compound I-409] | < 500 | > 3000 | – | –
– | – | < 500 | > 3000 | Cc1sc2c(c1C)C(c1ccc([C@H]3C[C@H](C[C@@H]4CCCN(c5ncc(C(=O)N[C@H]6C(C)(C)[C@H](Oc7ccc(C#N)c(Cl)c7)C6(C)C)cn5)C4)C3)cc1)=N[C@@H](Cc1ncco1)c1nnc(C)n1-2 [Compound I-403] | – | – | < 500 | > 3000
< 500 | < 500 | – | – | Cc1sc2c(c1C)C(c1ccc(CC3CN(C4CCN(c5ncc(C(=O)N[C@H]6C(C)(C)[C@H](Oc7ccc(C#N)c(Cl)c7)C6(C)C)cn5)C4)C3)cc1)=N[C@@H](Cc1ncco1)c1nnc(C)n1-2 (stereo partly drawn) [Compound I-154] | < 500 | < 500 | – | –
< 500 | < 500 | – | – | Cc1sc2c(c1C)C(c1ccc(O[C@@H]3CCCN(c4ncc(C(=O)N[C@H]5C(C)(C)[C@H](Oc6ccc(C#N)c(Cl)c6)C5(C)C)cn4)C3)cc1)=N[C@@H](Cc1ncco1)c1nnc(C)n1-2 [Compound I-260] | < 500 | 1500 to 3000 | – | –
< 500 | < 500 | – | – | Cc1sc2c(c1C)C(c1ccc(O[C@@H]3COC4(CCN(c5ncc(C(=O)N[C@H]6C(C)(C)[C@H](Oc7ccc(C#N)c(Cl)c7)C6(C)C)cn5)C4)C3)cc1)=N[C@@H](Cc1ncco1)c1nnc(C)n1-2 (stereo partly drawn) [Compound I-185] | < 500 | < 500 | – | –
> 3000 | > 3000 | – | – | Cc1sc2c(c1C)C(c1ccc(O[C@H]3C[C@]4(CCCN(c5ncc(C(=O)N[C@H]6C(C)(C)[C@H](Oc7ccc(C#N)c(Cl)c7)C6(C)C)cn5)C4)C3)cc1)=N[C@@H](C)c1nnc(C)n1-2 [Compound I-410] | < 500 | > 3000 | – | –
